By IC50 is commonly meant the concentration that inhibits the measured activity by half.

Experimental findings from patent US20250049812A1, “Compounds that Inhibit Necroptosis and Their Preparation Methods” (SHANGHAI INSTITUTE OF ORGANIC CHEMISTRY, CHINESE ACADEMY OF …, priority 2021, published 2025) are described below.

A value given as a limit tells only on which side of the number the result lay.

The first assay concerns Jurkat FADD (−/−) Cells. Nature of the assay: TNF-α induced necroptosis of Jurkat FADD-deficient cells (CellTiter-Glo cell survival). In kind it is cell-based, human. To be noted: Homo sapiens, Jurkat, 13 h. The procedure: 1. Cell Activity Testing System (TNF-α Induces the Necroptosis of Jurkat Cells, the Human Leukemia Cells Deficient in FADD).
(1) Cell culture: Jurkat FADD-deficient cells were cultured in an RPMI 1640 medium with 10% fetal bovine serum (FBS), 100 U/mL penicillin, and 100 […]. The cells were cultured in a cell culture incubator at 37° C. with 5% CO2. And all the cells were cryopreserved in a complete medium containing 5-10% DMSO. Medium change and passage were performed 3-4 times per week.
(4) Experimental scheme: The system of TNF-α inducing the necroptosis of Jurkat FADD-deficient cells was used to screen for compounds with RIPKl kinase inhibitory activity.
Jurkat FADD-deficient cells were evenly inoculated into a 384-well plate with each well added with a 40 μL complete culture medium, followed by the addition of 5 μL of the under-testing compound to each well. The initial concentration of the compounds was set at 25 μM (for some compounds with higher activity, the initial concentration was set at 0.5 μM), with a three-fold gradient dilution, totaling 12 gradient points. Three replicate wells were set for each compound. In addition, there was a blank control group and a control group with TNFα stimulation only. After the compound was added, the mixture needed to be centrifuged and incubated in a cell culture incubator at 37° C. containing 5% CO2 for 1 hour. After that, 5 μL of 5 ng/mL TNFα was added to stimulate the occurrence of necroptosis. After centrifugation and mixing, the mixture was placed in the cell culture incubator for 13 hours (until the cell death rate reaches 65% in the group with only TNF-α), with a total volume of 50 μL per well. Then, the steps below were followed to test the cell survival rate.
The CellTiter-Glo® Buffer was removed from the reagent kit, equilibrated to room temperature, and used to dissolve the CellTiter-Glo® Substrate. The CellTiter-Glo® Reagent obtained could be directly used for the experiment.
15 μL of CellTiter-Glo® Reagent which has been equilibrated to room temperature was added to each well, and incubated in the dark for 15 minutes. After that, a microplate reader (Enspire Multimode Plate Reader of PerkinElmer, USA) was used to measure the chemiluminescence.
In general terms: In ATP-based viability assays light output follows the ATP content of the culture.
Regarding `COC(=O)Cn1cc2c3c(cccc31)N(C)C(=O)C(NC(=O)c1nnc(Cc3ccccc3)[nH]1)C2` (racemic) [T-29, (±)-methyl2-(3-(5-benzyl-4H-1,2,4-triazole-3-carboxamide)-1-methyl-2-oxo-1,2,3,4-tetrahydro-6H-azacyclo [4,3,2-cd]indol-6-yl)acetate], the IC50 is under 10 nM.

`CN1C(=O)C(NC(=O)c2nnc(Cc3ccccc3)[nH]2)Cc2cn(CCO)c3cccc1c23` (racemic) [T-33, (±)-5-benzyl-N-(6-(2-hydroxyethyl)-1-methyl-2-oxo-2,3,4,6-tetrahydro-1H-azacyclo [4,3,2-cd]indol-3-yl)-4H-1,2,4-triazole-3-carboxamide] came in with a concentration for half-maximal inhibition (IC50) of 10 to 100 nM.

In turn, `CN1C(=O)C(NC(=O)c2nnc(Cc3ccccc3)[nH]2)Cc2cn(CCN3CCOCC3)c3cccc1c23` (racemic) [T-38, (±)-5-benzyl-N-(1-methyl-6-(2-morpholinoethyl)-2-oxo-2,3,4,6-tetrahydro-1H-azacyclo [4,3,2-cd]indol-3-yl)-4H-1,2,4-triazole-3-carboxamide] yielded a half-maximal inhibitory concentration (IC50) of under 10 nM.

Still in this assay, the particulars now being: Homo sapiens; TNF-α induced necroptosis, Jurkat FADD-deficient cells, 13 hours, CellTiter-Glo; read-out: IC50.
As to `CN1C(=O)C(NC(=O)c2nnc(Cc3ccccc3)[nH]2)Cc2cn(C3CC3)c3cccc1c23` (racemic) [T-23, (±)-5-benzyl-N-(6-cyclopropyl-1-methyl-2-oxo-2,3,4,6-tetrahydro-1H-azacyclo [4,3,2-cd]indol-3-yl)-4H-1,2,4-triazole-3-carboxamide], the IC50 lay within 100 to 1000 nM.

Turning to `CN1C(=O)C(NC(=O)c2nnc(Cc3ccccc3)[nH]2)Cc2cn(-c3ccccc3)c3cccc1c23` (racemic) [T-24, (±)-5-benzyl-N-(1-methyl-2-oxo-6-phenyl-2,3,4,6-tetrahydro-1H-azacyclo [4,3,2-cd]indol-3-yl)-4H-1,2,4-triazole-3-carboxamide], the IC50 lay in the range of 10 to 100 nM.

For the compound `CN1C(=O)C(NC(=O)c2nnc(Cc3ccccc3)[nH]2)Cc2cn(CC#N)c3cccc1c23` (racemic) [T-25, (±)-5-benzyl-N-(6-(cyanomethyl)-1-methyl-2-oxo-2,3,4,6-tetrahydro-1H-azacyclo [4,3,2-cd]indol-3-yl)-4H-1,2,4-triazole-3-carboxamide], the 50% inhibitory concentration (IC50) is under 10 nM.

For `CN1C(=O)C(NC(=O)c2nnc(Cc3ccccc3)[nH]2)Cc2cn(CCF)c3cccc1c23` (racemic) [T-26, (±)-5-benzyl-N-(6-(2-fluoroethyl)-1-methyl-2-oxo-2,3,4,6-tetrahydro-1H-azacyclo [4,3,2-cd]indol-3-yl)-4H-1,2,4-triazole-3-carboxamide], the half-maximal inhibitory concentration (IC50) was 10 to 100 nM.

For the compound `CC(C#N)Cn1cc2c3c(cccc31)N(C)C(=O)C(NC(=O)c1nnc(Cc3ccccc3)[nH]1)C2` (racemic) [T-27, (±)-5-benzyl-N-(6-(2-cyanopropyl)-1-methyl-2-oxo-2,3,4,6-tetrahydro-1H-azacyclo [4,3,2-cd]indol-3-yl)-4H-1,2,4-triazole-3-carboxamide], the IC50 was 10 to 100 nM.

In the case of `COCCn1cc2c3c(cccc31)N(C)C(=O)C(NC(=O)c1nnc(Cc3ccccc3)[nH]1)C2` (racemic) [T-28, (±)-5-benzyl-N-(6-(2-methoxyethyl)-1-methyl-2-oxo-2,3,4,6-tetrahydro-1H-azacyclo [4,3,2-cd]indol-3-yl)-4H-1,2,4-triazole-3-carboxamide], the IC50 is under 10 nM.

For the compound `CN1C(=O)C(NC(=O)c2nnc(Cc3ccccc3)[nH]2)Cc2cn(CC(=O)O)c3cccc1c23` (racemic) [T-30, (±)-2-(3-(5-benzyl-4H-1,2,4-triazole-3-carboxamide)-1-methyl-2-oxo-1,2,3,4-tetrahydro-6H-azacyclo [4,3,2-cd]indol-6-yl)acetic Acid], the concentration for half-maximal inhibition (IC50) lay within 100 to 1000 nM.

As to `CN1C(=O)C(NC(=O)c2nnc(Cc3ccccc3)[nH]2)Cc2cn(CC(N)=O)c3cccc1c23` (racemic) [T-31, (±)-N-(6-(2-amino-2-oxoethyl)-1-methyl-2-oxo-2,3,4,6-tetrahydro-1H-azacyclo [4,3,2-cd]indol-3-yl)-5-benzyl-4H-1,2,4-triazole-3-carboxamide], the 50% inhibitory concentration (IC50) fell in the range of 100 to 1000 nM.

For the compound `CN1C(=O)C(N2CCc3c(nn(Cc4ccccc4)c3Cl)C2=O)Cc2c[nH]c3cccc1c23` (racemic) [T-32, (±)-3-(2-benzyl-3-chloro-7-oxo-2,4,5,7-tetrahydro-6H-pyrazole [3,4-c]pyridin-6-yl)-1-methyl-1,3,4,6-tetrahydro-2H-azacyclo [4,3,2-cd] indole-2-one], the IC50 is under 10 nM.

Turning to `CN1C(=O)C(NC(=O)c2nnc(Cc3ccccc3)[nH]2)Cc2cn(Cc3cnn(C)c3)c3cccc1c23` (racemic) [T-35, (±)-5-benzyl-N-(1-methyl-6-((1-methyl-1H-pyrazol-4-yl)methyl)-2-oxo-2,3,4,6-tetrahydro-1H-azacyclo [4,3,2-cd]indol-3-yl)-4H-1,2,4-triazole-3-carboxamide], the IC50 was under 10 nM.

Regarding `CN1C(=O)C(NC(=O)c2nnc(Cc3ccccc3)[nH]2)Cc2cn(-c3ccnn3C)c3cccc1c23` (racemic) [T-36, (±)-5-benzyl-N-(1-methyl-6-(1-methyl-1H-pyrazol-5-yl)-2-oxo-2,3,4,6-tetrahydro-1H-azacyclo [4,3,2-cd]indol-3-yl)-4H-1,2,4-triazole-3-carboxamide], the concentration for half-maximal inhibition (IC50) is under 10 nM.

With `CN1C(=O)C(NC(=O)c2nnc(Cc3ccccc3)[nH]2)Cc2cn(-c3ccn(C)n3)c3cccc1c23` (racemic) [T-37, (±)-5-benzyl-N-(1-methyl-6-(1-methyl-1H-pyrazol-3-yl)-2-oxo-2,3,4,6-tetrahydro-1H-azacyclo [4,3,2-cd]indol-3-yl)-4H-1,2,4-triazole-3-carboxamide], the concentration for half-maximal inhibition (IC50) is under 10 nM.

Take `CN1C(=O)C(NC(=O)c2nnc(Cc3ccccc3)[nH]2)Cc2cn(C(=O)C(C)(C)C)c3cccc1c23` (racemic) [T-39, (±)-5-benzyl-N-(1-methyl-2-oxo-6-pivaloyl-2,3,4,6-tetrahydro-1H-azacyclo [4,3,2-cd]indol-3-yl)-4H-1,2,4-triazole-3-carboxamide]: the IC50 lay within 10 to 100 nM.

In the case of `COc1cccnc1-n1cc2c3c(cccc31)N(C)C(=O)C(NC(=O)c1nnc(Cc3ccccc3)[nH]1)C2` (racemic) [T-41, (±)-5-benzyl-N-(6-(3-methoxypyridin-2-yl)-1-methyl-2-oxo-2,3,4,6-tetrahydro-1H-azacyclo [4,3,2-cd]indol-3-yl)-4H-1,2,4-triazole-3-carboxamide], the IC50 is under 10 nM.

Turning to `COCc1ccncc1-n1cc2c3c(cccc31)N(C)C(=O)C(NC(=O)c1nnc(Cc3ccccc3)[nH]1)C2` (racemic) [T-42, (±)-5-benzyl-N-(6-(4-(methoxymethyl)pyridin-3-yl)-1-methyl-2-oxo-2,3,4,6-tetrahydro-1H-azacyclo [4,3,2-cd]indol-3-yl)-4H-1,2,4-triazole-3-carboxamide], the concentration for half-maximal inhibition (IC50) was under 10 nM.

As for `COC(=O)c1cccnc1-n1cc2c3c(cccc31)N(C)C(=O)C(NC(=O)c1nnc(Cc3ccccc3)[nH]1)C2` (racemic) [T-43, (±)-2-(3-(5-benzyl-4H-1,2,4-triazole-3-carboxamide)-1-methyl-2-oxo-1,2,3,4-tetrahydro-6H-azacyclo [4,3,2-cd]indol-6-yl)nicotinate], the half-maximal inhibitory concentration (IC50) is under 10 nM.

As to `Cc1cccnc1-n1cc2c3c(cccc31)N(C)C(=O)C(NC(=O)c1nnc(Cc3ccccc3)[nH]1)C2` (racemic) [T-44, (±)-5-benzyl-N-(1-methyl-6-(3-methylpyridin-2-yl)-2-oxo-2,3,4,6-tetrahydro-1H-azacyclo [4,3,2-cd]indol-3-yl)-4H-1,2,4-triazole-3-carboxamide], the IC50 is under 10 nM.
